Test results reported in patent publication US20220409727A1, “Metal Complexes Bearing Bisstyryl-Bipyridine Ligand and Their Use as Photosensitizer Agent in One and Two-Photon Photodynamic Therapy” (Paris Sciences et Lettres, priority 2019, published 2022).
Read-outs that look alike come from different tables or passages of the source.

Assays:
[1] = Emission measurement in CH3CN; assay type: physicochemical; settings: room temperature, excitation at 355 nm
Experimental: The absorption of the samples was measured with a SpectraMax M2 Spectrometer (Molecular Devices). The emission was measured by irradiation of the sample in fluorescence quartz cuvettes (width 1 cm) using a NT342B Nd-YAG pumped optical parametric oscillator (Ekspla) at 355 nm. Luminescence was focused and collected at right angle to the excitation pathway and directed to a Princeton Instruments Acton SP-2300i monochromator. As a detector, a XPI-Max 4 CCD camera (Princeton Instruments) has been used.

[2] = Luminescence quantum yield measurements; assay type: physicochemical; parameters: key: fraction, relative to [Ru(bipy)3]Cl2 reference in CH3CN (Φem=5.9%); settings: CH3CN, room temperature, excitation at 355 nm
Experimental: For the determination of the luminescence quantum yield, the samples were prepared in an CH3CN solution with an absorbance of 0.1 at 355 nm. This solution was irradiated in fluorescence quartz cuvettes (width 1 cm) using a NT342B Nd-YAG pumped optical parametric oscillator (Ekspla) at 355 nm. The emission signal was focused and collected at right angle to the excitation pathway and directed to a Princeton Instruments Acton SP-2300i monochromator. As a detector a XPI-Max 4 CCD camera (Princeton Instruments) has been used. The luminescence quantum yields were determined by comparison with the reference [Ru(bipy)3]Cl2 in CH3CN (Φem=5.9%) (Nakamaru, K., 1982) applying the following formula:
Φem, sample=Φem, reference*(Freference/Fsample)*(Isample/Ireference)*(nsample/nreference)^2
Φem=luminescence quantum yield, F=fraction of light absorbed, I=integrated emission intensities, n=refractive index, A=absorbance of the sample at irradiation wavelength.

[3] = Luminescence lifetime measurements; assay type: physicochemical; settings: excitation at 355 nm; for τ/ns air (Lifetime): air saturated CH3CN; for τ/ns degassed (Lifetime): degassed CH3CN
Experimental: For the determination of the lifetimes, the samples were prepared in an air saturated and in a degassed CH3CN solution with an absorbance of 0.2 at 355 nm. This solution was irradiated in fluorescence quartz cuvettes (width 1 cm) using a NT342B Nd-YAG pumped optical parametric oscillator (Ekspla) at 355 nm. The emission signal was focused and collected at right angle to the excitation pathway and directed to a Princeton Instruments Acton SP-2300i monochromator. As a detector a R928 photomultiplier tube (Hamamatsu) has been used.

[4] = Singlet oxygen measurement, direct evaluation (1O2 luminescence at 1270 nm); assay type: physicochemical
Experimental: The samples were prepared in an air saturated CH3CN or D2O solution with an absorbance of 0.2 at 450 nm. This solution was irradiated in fluorescence quartz cuvettes (width 1 cm) using a mounted M450LP1 LED (Thorlabs) whose irradiation, centered at 450 nm, has been focused with aspheric condenser lenses. The intensity of the irradiation has been varied using a T-Cube LED Driver (Thorlabs) and measured with an optical power and energy meter. The emission signal was focused and collected at right angle to the excitation pathway and directed to a Princeton Instruments Acton SP-2300i monochromator. A longpass glass filter was placed in front of the monochromator entrance slit to cut off light at wavelengths shorter than 850 nm. As a detector an EO-817L IR-sensitive liquid nitrogen cooled germanium diode detector (North Coast Scientific Corp.) has been used. The singlet oxygen luminesce at 1270 nm was measured by recording spectra from 1100 to 1400 nm. For the data analysis, the singlet oxygen luminescence peaks at different irradiation intensities were integrated. The resulting areas were plotted against the percentage of the irradiation intensity and the slope of the linear regression calculated. The absorbance of the sample was corrected with an absorbance correction factor. As reference for the measurement Rose Bengal (Φ=76%) (Kochevar, I. E. and Redmond, R. W., 2000) was used and the singlet oxygen quantum yields were calculated using the following formula:
Φsample=Φreference*(Ssample/Sreference)*(Ireference/Isample)
Φ=singlet oxygen quantum yield, S=slope of the linear regression of the plot of the areas of the singlet oxygen luminescence peaks against the irradiation intensity, I=absorbance correction factor, […] of the irradiation source, A=absorbance of the sample at irradiation wavelength.

[5] = Singlet oxygen measurement, indirect evaluation (RNO absorbance); assay type: physicochemical; settings: indirect
Experimental: For the measurement in CH3CN: The samples were prepared in an air-saturated CH3CN solution containing the complex with an absorbance of 0.2 at the irradiation wavelength, N,N-dimethyl-4-nitrosoaniline aniline (RNO, 24 μM) and imidazole (12 mM). For the measurement in PBS buffer: The samples were prepared in an air-saturated PBS solution containing the complex with an absorbance of 0.1 at the irradiation wavelength, N,N-dimethyl-4-nitrosoaniline aniline (RNO, 20 μM) and histidine (10 mM). The samples were irradiated on 96 well plates with an Atlas Photonics LUMOS BIO irradiator for different times. The absorbance of the samples was measured during these time intervals with a SpectraMax M2 Microplate Reader (Molecular Devices). The difference in absorbance (A0−A) at 420 nm for the CH3CN solution or at 440 nm a PBS buffer solution was calculated and plotted against the irradiation times. From the plot the slope of the linear regression was calculated as well as the absorbance correction factor determined. The singlet oxygen quantum yields were calculated using the same formulas as used for the direct evaluation.

[6] = system: human cervical carcinoma (HeLa) cells; experiment: (Photo-)cytotoxicity on 2D cell monolayers, resazurin assay, HeLa; assay type: cell-based; settings: for PI (480 nm): dark vs 480 nm (10 min, 3.1 J/cm^2); for PI (540 nm): dark vs 540 nm (40 min, 9.5 J/cm^2)
From the text: Before an experiment, the cells were passaged three times.

[7] = system: mouse colon carcinoma (CT-26) cells
Experimental: (§1) The human glioblastoma astrocytoma (U373) cell line was cultured in MEM medium supplemented with 10% FBS, 1% NEAA (non-essential amino-acids) and 1% penicillin/streptomycin. […] The human retinal epithelial cells (RPE-1, non-cancerous cells immortalized with hTERT) were cultured in DMEM-F12 medium supplemented with 10% FBS and 1% penicillin/streptomycin. All cell lines were obtained from the American Type Culture Collection (ATCC) and cultured at 37° C. and 5% CO2. Before an experiment, the cells were passaged three times.
(§2) The cytotoxicity of the compounds was assessed by measuring cell viability using a fluorometric resazurin assay. The cultivated cells were seeded in triplicates in 96 well plates with a density of 4000 cells per well in 100 μL of media. After 24 h, the medium was removed and the cells were treated with increasing concentrations of the compound diluted in cell media achieving a total volume of 200 μL. The cells were incubated with the compound for 4 h. After this time, the media was removed and replaced with 200 μL of fresh medium. For the phototoxicity studies, the cells were exposed to light with an Atlas Photonics LUMOS BIO irradiator. Each well was constantly illuminated with either a 480 nm or 540 nm irradiation. During this time, the temperature was maintained constantly at 37° C. The cells were grown in the incubator for additional 44 h. For the determination of the dark cytotoxicity, the cells were not irradiated and after the medium exchange directly incubated for 44 h. After this time, the medium was replaced with fresh medium containing resazurin with a final concentration of 0.2 mg/mL. After 4 h incubation, the amount of the fluorescent product resorufin was determined upon excitation at 540 nm and measurement its emission at 590 nm using a SpectraMax M2 Microplate Reader (Molecular Devices).
(§3) The obtained data was analyzed with the GraphPad Prism software.

[8] = system: human glioblastoma astrocytoma (U373) cells
[9] = system: human glioblastoma astrocytoma (U373) cells; experiment: (Photo-)cytotoxicity on 2D cell monolayers, resazurin assay, U373; settings: for PI (480 nm): U373, dark vs 480 nm (10 min, 3.1 J/cm^2); for PI (540 nm): U373, dark vs 540 nm (40 min, 9.5 J/cm^2); for IC50: compounds 1-3 as chloride salts
[10] = system: non-cancerous retinal pigment epithelium (RPE-1) cells; experiment: (Photo-)cytotoxicity on 2D cell monolayers, resazurin assay, RPE-1; settings: for PI (480 nm): RPE-1, dark vs 480 nm (10 min, 3.1 J/cm^2); for PI (540 nm): RPE-1, dark vs 540 nm (40 min, 9.5 J/cm^2);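 as to all read-outs here: cells exposed to compound 4 h, medium exchanged, then irradiated or kept dark, 44 h further growth, viability by resorufin fluorescence (ex 540 nm, em 590 nm)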
Experimental: as §1, §2, §3

[11] = system: mouse colon carcinoma (CT-26) cells; experiment: (Photo-)cytotoxicity on 2D cell monolayers, resazurin assay, CT-26; settings: for PI (480 nm): CT-26, dark vs 480 nm (10 min, 3.1 J/cm^2); for PI (540 nm): CT-26, dark vs 540 nm (40 min, 9.5 J/cm^2); for IC50: compounds 1-3 as chloride salts
Experimental: as §1, §2, §3

[12] = dark, 4 h incubation, compounds 1-3 as chloride salts, read-out: IC50 dark
[13] = read-out: IC50 480 nm (10 min, 3.1 J/cm^2), irradiation 480 nm (10 min, 3.1 J/cm^2), compounds 1-3 as chloride salts
[14] = read-out: IC50 540 nm (40 min, 9.5 J/cm^2), irradiation 540 nm (40 min, 9.5 J/cm^2), compounds 1-3 as chloride salts
[15] = read-out: IC50 480 nm (10 min, 3.1 J/cm^2), U373, irradiation 480 nm (10 min, 3.1 J/cm^2)
[16] = read-out: IC50 dark, U373, dark, 4 h incubation
[17] = read-out: IC50 540 nm (40 min, 9.5 J/cm^2), CT-26, irradiation 540 nm (40 min, 9.5 J/cm^2)
[18] = read-out: IC50 dark, CT-26, dark, 4 h incubation

Compound | Singlet oxygen quantum yield, direct 450 nm CH3CN [4] [%] | Singlet oxygen quantum yield, indirect 450 nm CH3CN [5] [%] | Singlet oxygen quantum yield, indirect 450 nm PBS [5] [%] | Singlet oxygen quantum yield, indirect 540 nm CH3CN [5] [%] | Singlet oxygen quantum yield, indirect 540 nm PBS [5] [%] | PI (480 nm) [6] | PI (540 nm) [6] | IC50 [6, 12] [µM] | IC50 [6, 13] [µM] | IC50 [6, 14] [µM] | IC50 [7] [µM] | IC50 [8] [µM] | PI (480 nm) [9] | PI (540 nm) [9] | IC50 [9, 15] [µM] | IC50 [9, 16] [µM] | PI (480 nm) [10] | PI (540 nm) [10] | IC50 [11, 17] [µM] | IC50 [11, 18] [µM] | also measured
C(=C\c1ccnc(-c2cc(/C=C/c3ccccc3)ccn2)c1)/c1ccccc1.C(=C\c1ccnc(-c2cc(/C=C/c3ccccc3)ccn2)c1)/c1ccccc1.C(=C\c1ccnc(-c2cc(/C=C/c3ccccc3)ccn2)c1)/c1ccccc1.F[P-](F)(F)(F)(F)F.F[P-](F)(F)(F)(F)F.[Ru+2] [Compound 1] | 65 | 66 | 5 | 61 | 3 | >3.4 | >2.1 | > 100 | 29.5 ± 1.2 | 48.7 ± 4.5 | 20.3 ± 1.8 | 83.1 ± 6.7 | >1.9 | >1.2 | 51.7 ± 3.2 | > 100 | >3.2 | >3.2 | 33.4 ± 3.5 | > 100 | λem/nm (Emission maximum) [1]: 677 nm; ϕem (Luminescence Quantum Yield) [2]: 0.019; τ/ns air (Lifetime) [3]: 86 ns; τ/ns degassed (Lifetime) [3]: 385 ns; PI (480 nm) [11]: >4.9; PI (540 nm) [11]: >3.0
CN(C)c1ccc(/C=C/c2ccnc(-c3cc(/C=C/c4ccc(N(C)C)cc4)ccn3)c2)cc1.CN(C)c1ccc(/C=C/c2ccnc(-c3cc(/C=C/c4ccc(N(C)C)cc4)ccn3)c2)cc1.CN(C)c1ccc(/C=C/c2ccnc(-c3cc(/C=C/c4ccc(N(C)C)cc4)ccn3)c2)cc1.F[P-](F)(F)(F)(F)F.F[P-](F)(F)(F)(F)F.[Ru+2] [Compound 2, [Ru((E,E′)-4,4′-Bis[p-(N,N-dimethylamino)styryl]-2,2′-bipyridine)3][PF6]2] | 18 | 25 | 3 | 16 | 1 | >3.4 | >1.9 | > 100 | 29.4 ± 8.3 | 52.3 ± 6.1 | 42.6 ± 3.8 | 61.4 ± 5.6 | >2.0 | >1.6 | 49.1 ± 6 | > 100 | >2.6 | >2.0 | 62.5 ± 8.2 | > 100 | λem/nm (Emission maximum) [1]: 709 nm; ϕem (Luminescence Quantum Yield) [2]: <0.001; τ/ns air (Lifetime) [3]: 48 ns; τ/ns degassed (Lifetime) [3]: 222 ns; PI (480 nm) [11]: >2.3; PI (540 nm) [11]: >1.6
F[P-](F)(F)(F)(F)F.F[P-](F)(F)(F)(F)F.[Ru+2].c1cnc2c(c1)ccc1cccnc12.c1cnc2c(c1)ccc1cccnc12.c1cnc2c(c1)ccc1cccnc12 [[Ru(1,10-phenanthroline)3][PF6]2, reference compound] | 25 | 23 | 2 | 22 | 2 |  |  | > 100 | > 100 | > 100 | > 100 | > 100 |  |  | > 100 | > 100 |  |  | > 100 | > 100 | 
[Ru(4,7-Diphenyl-1,10-phenanthroline)3][PF6]2 [reference compound] | 44 | 47 | 4 | 45 | 3 | 12.1 | 7.7 | 8.5 ± 0.4 | 0.7 ± 0.2 | 1.1 ± 0.2 | 0.4 ± 0.2 | 1.2 ± 0.3 | 7.8 | 8.4 | 1.3 ± 0.2 | 10.1 ± 0.7 | 13.4 | 10.1 | 0.5 ± 0.2 | 2.8 ± 0.5 | PI (480 nm) [11]: 7.0; PI (540 nm) [11]: 5.6
